# Reference: patent publication US20250353873A1, “COMPOUNDS AND METHODS FOR MODULATING APOE EXPRESSION” (Ionis Pharmaceuticals, Inc., priority 2024, published 2025)
# Strand notation (5' to 3'): a small letter for the sugar, then the base; units joined by * are phosphorothioate-linked, units joined directly phosphodiester-linked; [ ] holds rarer units or linkages, { } end groups; capitals alone tell only the bases. [ms] = mesyl phosphoramidate linkage; e = 2'-O-(2-methoxyethyl) (MOE); k = constrained ethyl (cEt); [5mC] = 5-methylcytosine; d = 2'-deoxy (DNA)
# Test system: human APOE RNA
# Test: Activity in APOE C57BL/6NTac-Apoeem7250 knock-in mice, single ICV bolus, 16 weeks (Example 12)
# Assay type: in vivo
# Conditions: cortex; single ICV bolus 300 μg; 16 weeks post treatment; normalized to mouse Ppia
# Procedure, shortened: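 Knock-in mice (3-4 per group) received one ICV bolus of 300 μg oligonucleotide, PBS as control. After 16 weeks, human APOE RNA in cortex and spinal cord measured by RT-qPCR, normalized to mouse Ppia, and reported as % of PBS control.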
row,Substance,APOE RNA (% control) Cortex [% control]
1,1736493 (e[5mC]*eTeT*eG*eG*eT*dG[ms]dA[ms]dA[ms]dT*d[5mC]*dT*dT*dT*dA[ms]dT*kT*kA*eA*eA; antisense) [Compound 1736493],57
2,1736513 (e[5mC]*eTeT*eG*eG*kT*dG[ms]dA[ms]dA[ms]dT*d[5mC]*dT*dT*dT*dA[ms]dT*eT*eA*eA*eA; antisense) [Compound 1736513],53

# Same assay, conditions: spinal cord; single ICV bolus 300 μg; 16 weeks post treatment; normalized to mouse Ppia
row,Substance,APOE RNA (% control) Spinal Cord [% control]
1,1736493 (e[5mC]*eTeT*eG*eG*eT*dG[ms]dA[ms]dA[ms]dT*d[5mC]*dT*dT*dT*dA[ms]dT*kT*kA*eA*eA; antisense) [Compound 1736493],51
2,1736513 (e[5mC]*eTeT*eG*eG*kT*dG[ms]dA[ms]dA[ms]dT*d[5mC]*dT*dT*dT*dA[ms]dT*eT*eA*eA*eA; antisense) [Compound 1736513],30

# Test system: human APOE RNA
# Test: Activity in APOE C57BL/6NTac-Apoeem7250 knock-in mice, single ICV bolus, 4 weeks (Example 10)
# Assay type: in vivo
# Conditions: Cortex; C57BL/6NTac-Apoeem7250 knock-in mice, single ICV bolus 300 μg, 4 weeks (Table 22)
# Experimental: Modified oligonucleotides described above were tested in the APOE C57BL/6NTac-Apoeem7250 knock-in mouse model described above.
# APOE C57BL/6NTac-Apoeem7250 knock-in mice were divided into groups of 2-4 mice each. Each mouse received a single ICV bolus of 300 μg of modified oligonucleotide. A group of 3-4 mice received a single ICV bolus with PBS as a negative control.
# Four weeks post treatment, mice were sacrificed and RNA was extracted from cortical brain tissue and spinal cord for quantitative real-time RT-PCR analysis of RNA expression of APOE using human primer probe set RTS3073 (described herein above). APOE RNA levels were normalized to mouse Ppia. Mouse Ppia was amplified using primer probe set m_cyclo24 (described herein above). Results are presented as percent human APOE RNA relative to the amount of human APOE RNA in PBS treated animals, (% control). Each experiment is identified in separate tables below.
row,Substance,APOE RNA (% control) Cortex [% control]
1,1736493 (e[5mC]*eTeT*eG*eG*eT*dG[ms]dA[ms]dA[ms]dT*d[5mC]*dT*dT*dT*dA[ms]dT*kT*kA*eA*eA; antisense) [Compound 1736493],47
2,1736513 (e[5mC]*eTeT*eG*eG*kT*dG[ms]dA[ms]dA[ms]dT*d[5mC]*dT*dT*dT*dA[ms]dT*eT*eA*eA*eA; antisense) [Compound 1736513],42
3,1736528 (e[5mC]*eT*eT*eG*eG*eTdG[ms]dA[ms]dA[ms]dT*d[5mC]*dT*dT*dT*dA[ms]dT*kT*eA*eA*eA; antisense) [Compound 1736528],57

# Same assay, conditions: Spinal Cord; C57BL/6NTac-Apoeem7250 knock-in mice, single ICV bolus 300 μg, 4 weeks (Table 22)
row,Substance,APOE RNA (% control) Spinal Cord [% control]
1,1736493 (e[5mC]*eTeT*eG*eG*eT*dG[ms]dA[ms]dA[ms]dT*d[5mC]*dT*dT*dT*dA[ms]dT*kT*kA*eA*eA; antisense) [Compound 1736493],51
2,1736513 (e[5mC]*eTeT*eG*eG*kT*dG[ms]dA[ms]dA[ms]dT*d[5mC]*dT*dT*dT*dA[ms]dT*eT*eA*eA*eA; antisense) [Compound 1736513],52
3,1736528 (e[5mC]*eT*eT*eG*eG*eTdG[ms]dA[ms]dA[ms]dT*d[5mC]*dT*dT*dT*dA[ms]dT*kT*eA*eA*eA; antisense) [Compound 1736528],56

# Test system: human APOE RNA
# Test: Dose-dependent inhibition of human APOE RNA in HepG2 cells, electroporation, 24 hours (Example 6)
# Assay type: cell-based
# Conditions: not given
# Experimental: Modified oligonucleotides selected from the examples above were tested at various doses in HepG2.
# HepG2 cells plated at a density of 50,000 cells per well were treated by electroporation with various concentrations of modified oligonucleotide as specified in the tables below. […] APOE RNA levels were measured using the human primer probe set RTS3073 (described herein above). APOE RNA levels were normalized to human GAPDH. Human GAPDH was amplified using human primer probe set RTS 104 (described herein above). Results are presented as percent APOE RNA, relative to the amount of APOE RNA in untreated control cells (% UTC). The half maximal inhibitory concentration (IC50) of each modified oligonucleotide was calculated in GraphPad Prism 10 (GraphPad Software, San Diego, CA) and is also presented in the tables below.
row,Substance,IC50 [nM]
1,1736493 (e[5mC]*eTeT*eG*eG*eT*dG[ms]dA[ms]dA[ms]dT*d[5mC]*dT*dT*dT*dA[ms]dT*kT*kA*eA*eA; antisense) [Compound 1736493],140
2,1736513 (e[5mC]*eTeT*eG*eG*kT*dG[ms]dA[ms]dA[ms]dT*d[5mC]*dT*dT*dT*dA[ms]dT*eT*eA*eA*eA; antisense) [Compound 1736513],720
3,1736528 (e[5mC]*eT*eT*eG*eG*eTdG[ms]dA[ms]dA[ms]dT*d[5mC]*dT*dT*dT*dA[ms]dT*kT*eA*eA*eA; antisense) [Compound 1736528],1630

# Same assay, conditions: 5 nM
row,Substance,APOE RNA (% UTC)
1,1736493 (e[5mC]*eTeT*eG*eG*eT*dG[ms]dA[ms]dA[ms]dT*d[5mC]*dT*dT*dT*dA[ms]dT*kT*kA*eA*eA; antisense) [Compound 1736493],73
2,1736513 (e[5mC]*eTeT*eG*eG*kT*dG[ms]dA[ms]dA[ms]dT*d[5mC]*dT*dT*dT*dA[ms]dT*eT*eA*eA*eA; antisense) [Compound 1736513],106
3,1736528 (e[5mC]*eT*eT*eG*eG*eTdG[ms]dA[ms]dA[ms]dT*d[5mC]*dT*dT*dT*dA[ms]dT*kT*eA*eA*eA; antisense) [Compound 1736528],100

# Same assay, conditions: 13 nM
row,Substance,APOE RNA (% UTC)
1,1736493 (e[5mC]*eTeT*eG*eG*eT*dG[ms]dA[ms]dA[ms]dT*d[5mC]*dT*dT*dT*dA[ms]dT*kT*kA*eA*eA; antisense) [Compound 1736493],85
2,1736513 (e[5mC]*eTeT*eG*eG*kT*dG[ms]dA[ms]dA[ms]dT*d[5mC]*dT*dT*dT*dA[ms]dT*eT*eA*eA*eA; antisense) [Compound 1736513],110
3,1736528 (e[5mC]*eT*eT*eG*eG*eTdG[ms]dA[ms]dA[ms]dT*d[5mC]*dT*dT*dT*dA[ms]dT*kT*eA*eA*eA; antisense) [Compound 1736528],112

# Same assay, conditions: 33 nM
row,Substance,APOE RNA (% UTC)
1,1736493 (e[5mC]*eTeT*eG*eG*eT*dG[ms]dA[ms]dA[ms]dT*d[5mC]*dT*dT*dT*dA[ms]dT*kT*kA*eA*eA; antisense) [Compound 1736493],67
2,1736513 (e[5mC]*eTeT*eG*eG*kT*dG[ms]dA[ms]dA[ms]dT*d[5mC]*dT*dT*dT*dA[ms]dT*eT*eA*eA*eA; antisense) [Compound 1736513],114
3,1736528 (e[5mC]*eT*eT*eG*eG*eTdG[ms]dA[ms]dA[ms]dT*d[5mC]*dT*dT*dT*dA[ms]dT*kT*eA*eA*eA; antisense) [Compound 1736528],107

# Same assay, conditions: 82 nM
row,Substance,APOE RNA (% UTC)
1,1736493 (e[5mC]*eTeT*eG*eG*eT*dG[ms]dA[ms]dA[ms]dT*d[5mC]*dT*dT*dT*dA[ms]dT*kT*kA*eA*eA; antisense) [Compound 1736493],58
2,1736513 (e[5mC]*eTeT*eG*eG*kT*dG[ms]dA[ms]dA[ms]dT*d[5mC]*dT*dT*dT*dA[ms]dT*eT*eA*eA*eA; antisense) [Compound 1736513],89
3,1736528 (e[5mC]*eT*eT*eG*eG*eTdG[ms]dA[ms]dA[ms]dT*d[5mC]*dT*dT*dT*dA[ms]dT*kT*eA*eA*eA; antisense) [Compound 1736528],116

# Same assay, conditions: 205 nM
row,Substance,APOE RNA (% UTC)
1,1736493 (e[5mC]*eTeT*eG*eG*eT*dG[ms]dA[ms]dA[ms]dT*d[5mC]*dT*dT*dT*dA[ms]dT*kT*kA*eA*eA; antisense) [Compound 1736493],50
2,1736513 (e[5mC]*eTeT*eG*eG*kT*dG[ms]dA[ms]dA[ms]dT*d[5mC]*dT*dT*dT*dA[ms]dT*eT*eA*eA*eA; antisense) [Compound 1736513],72
3,1736528 (e[5mC]*eT*eT*eG*eG*eTdG[ms]dA[ms]dA[ms]dT*d[5mC]*dT*dT*dT*dA[ms]dT*kT*eA*eA*eA; antisense) [Compound 1736528],84

# Same assay, conditions: 512 nM
row,Substance,APOE RNA (% UTC)
1,1736493 (e[5mC]*eTeT*eG*eG*eT*dG[ms]dA[ms]dA[ms]dT*d[5mC]*dT*dT*dT*dA[ms]dT*kT*kA*eA*eA; antisense) [Compound 1736493],35
2,1736513 (e[5mC]*eTeT*eG*eG*kT*dG[ms]dA[ms]dA[ms]dT*d[5mC]*dT*dT*dT*dA[ms]dT*eT*eA*eA*eA; antisense) [Compound 1736513],47
3,1736528 (e[5mC]*eT*eT*eG*eG*eTdG[ms]dA[ms]dA[ms]dT*d[5mC]*dT*dT*dT*dA[ms]dT*kT*eA*eA*eA; antisense) [Compound 1736528],62

# Same assay, conditions: 1,280 nM
row,Substance,APOE RNA (% UTC)
1,1736493 (e[5mC]*eTeT*eG*eG*eT*dG[ms]dA[ms]dA[ms]dT*d[5mC]*dT*dT*dT*dA[ms]dT*kT*kA*eA*eA; antisense) [Compound 1736493],25
2,1736513 (e[5mC]*eTeT*eG*eG*kT*dG[ms]dA[ms]dA[ms]dT*d[5mC]*dT*dT*dT*dA[ms]dT*eT*eA*eA*eA; antisense) [Compound 1736513],37
3,1736528 (e[5mC]*eT*eT*eG*eG*eTdG[ms]dA[ms]dA[ms]dT*d[5mC]*dT*dT*dT*dA[ms]dT*kT*eA*eA*eA; antisense) [Compound 1736528],50

# Same assay, conditions: 3,200 nM
row,Substance,APOE RNA (% UTC)
1,1736493 (e[5mC]*eTeT*eG*eG*eT*dG[ms]dA[ms]dA[ms]dT*d[5mC]*dT*dT*dT*dA[ms]dT*kT*kA*eA*eA; antisense) [Compound 1736493],8
2,1736513 (e[5mC]*eTeT*eG*eG*kT*dG[ms]dA[ms]dA[ms]dT*d[5mC]*dT*dT*dT*dA[ms]dT*eT*eA*eA*eA; antisense) [Compound 1736513],33
3,1736528 (e[5mC]*eT*eT*eG*eG*eTdG[ms]dA[ms]dA[ms]dT*d[5mC]*dT*dT*dT*dA[ms]dT*kT*eA*eA*eA; antisense) [Compound 1736528],39

# Same assay, conditions: 8,000 nM
row,Substance,APOE RNA (% UTC)
1,1736493 (e[5mC]*eTeT*eG*eG*eT*dG[ms]dA[ms]dA[ms]dT*d[5mC]*dT*dT*dT*dA[ms]dT*kT*kA*eA*eA; antisense) [Compound 1736493],6
2,1736513 (e[5mC]*eTeT*eG*eG*kT*dG[ms]dA[ms]dA[ms]dT*d[5mC]*dT*dT*dT*dA[ms]dT*eT*eA*eA*eA; antisense) [Compound 1736513],9
3,1736528 (e[5mC]*eT*eT*eG*eG*eTdG[ms]dA[ms]dA[ms]dT*d[5mC]*dT*dT*dT*dA[ms]dT*kT*eA*eA*eA; antisense) [Compound 1736528],23

# Same assay, conditions: 20,000 nM
row,Substance,APOE RNA (% UTC)
1,1736493 (e[5mC]*eTeT*eG*eG*eT*dG[ms]dA[ms]dA[ms]dT*d[5mC]*dT*dT*dT*dA[ms]dT*kT*kA*eA*eA; antisense) [Compound 1736493],8
2,1736513 (e[5mC]*eTeT*eG*eG*kT*dG[ms]dA[ms]dA[ms]dT*d[5mC]*dT*dT*dT*dA[ms]dT*eT*eA*eA*eA; antisense) [Compound 1736513],4
3,1736528 (e[5mC]*eT*eT*eG*eG*eTdG[ms]dA[ms]dA[ms]dT*d[5mC]*dT*dT*dT*dA[ms]dT*kT*eA*eA*eA; antisense) [Compound 1736528],16
